Legend:
Dipeptidyl peptidase 8 = Dipeptidyl peptidase 8 (Homo sapiens, UniProt Q6V1X1); assay: Inhibition of DPP-8 (unknown origin)
Dipeptidyl peptidase 9 = Dipeptidyl peptidase 9 (Homo sapiens, UniProt Q86TI2)
Description: Inhibition of DPP-9 (unknown origin)

[1] = Oral bioavailability in Sprague-Dawley rat at 25 mg/kg; format: ADME, organism-based; conditions: in vivo
[2] = Half life in Sprague-Dawley rat at 25 mg/kg, po; format: ADME, organism-based; parameters: dose 25 mg/kg, route oral; conditions: in vivo
Cytochrome P450 3A4 = Cytochrome P450 3A4 (Homo sapiens, UniProt P08684); assay: Inhibition of CYP3A (unknown origin); format: ADME
Cytochrome P450 3A4, sequence (P08684 whole entry): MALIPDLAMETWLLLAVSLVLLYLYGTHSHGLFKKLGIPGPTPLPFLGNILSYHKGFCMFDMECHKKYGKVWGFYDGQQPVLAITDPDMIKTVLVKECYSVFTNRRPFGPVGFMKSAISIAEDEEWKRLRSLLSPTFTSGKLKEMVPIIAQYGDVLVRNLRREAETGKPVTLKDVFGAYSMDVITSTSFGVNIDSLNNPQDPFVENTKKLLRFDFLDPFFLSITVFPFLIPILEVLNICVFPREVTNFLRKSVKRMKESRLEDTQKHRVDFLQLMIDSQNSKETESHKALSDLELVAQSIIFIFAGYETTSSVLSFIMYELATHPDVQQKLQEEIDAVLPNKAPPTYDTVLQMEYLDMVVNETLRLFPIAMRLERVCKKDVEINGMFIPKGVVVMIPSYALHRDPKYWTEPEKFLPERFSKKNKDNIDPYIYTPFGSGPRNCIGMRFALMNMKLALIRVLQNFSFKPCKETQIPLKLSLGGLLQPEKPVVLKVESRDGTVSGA

Mus musculus [3] = assay: In vivo inhibition of DPP-4 in ICR mouse assessed as cleavage rate of Gly-Pro-AMC in plasma at 1 mg/kg, po measured at 24 hrs by fluorescence assay relative to control; format: functional
Mus musculus [4] = assay: In vivo inhibition of DPP-4 in ICR mouse assessed as cleavage rate of Gly-Pro-AMC in plasma at 1 mg/kg, po measured at 7 hrs by fluorescence assay relative to control; format: functional
Mus musculus [5] = assay: In vivo inhibition of DPP-4 in ICR mouse assessed as cleavage rate of Gly-Pro-AMC in plasma at 1 mg/kg, po measured at 4.5 hrs by fluorescence assay relative to control; format: functional
Mus musculus [6] = assay: In vivo inhibition of DPP-4 in ICR mouse assessed as cleavage rate of Gly-Pro-AMC in plasma at 1 mg/kg, po measured at 0.5 hrs by fluorescence assay relative to control; format: functional
Mus musculus [7] = assay: In vivo inhibition of DPP-4 in ICR mouse assessed as cleavage rate of Gly-Pro-AMC in plasma at 3 mg/kg, po measured at 24 hrs by fluorescence assay relative to control; format: functional
Mus musculus [8] = assay: In vivo inhibition of DPP-4 in ICR mouse assessed as cleavage rate of Gly-Pro-AMC in plasma at 3 mg/kg, po measured at 7 hrs by fluorescence assay relative to control; format: functional
Mus musculus [9] = assay: In vivo inhibition of DPP-4 in ICR mouse assessed as cleavage rate of Gly-Pro-AMC in plasma at 3 mg/kg, po measured at 4.5 hrs by fluorescence assay relative to control; format: functional
Mus musculus [10] = assay: In vivo inhibition of DPP-4 in ICR mouse assessed as cleavage rate of Gly-Pro-AMC in plasma at 3 mg/kg, po measured at 0.5 hrs by fluorescence assay relative to control; format: functional
[11] = Apparent volume of distribution during terminal phase in Sprague-Dawley rat at 5 mg/kg, iv and 25 mg/kg, po; format: ADME, organism-based; conditions: in vivo, read-out: Vz/F
[12] = AUC (0 to t) in Sprague-Dawley rat at 25 mg/kg, po; format: ADME, organism-based; parameters: dose 25 mg/kg, route oral; conditions: plasma
[13] = Plasma clearance in Sprague-Dawley rat at 5 mg/kg, iv and 25 mg/kg, po; format: ADME, organism-based
[14] = Half life in Sprague-Dawley rat at 5 mg/kg, iv; format: ADME, organism-based; parameters: dose 5 mg/kg, route intravenous; conditions: in vivo
[15] = target: Voltage-gated inwardly rectifying potassium channel KCNH2 (Homo sapiens, UniProt Q12809); assay: Inhibition of human ERG
Voltage-gated inwardly rectifying potassium channel KCNH2, sequence (Q12809 whole entry): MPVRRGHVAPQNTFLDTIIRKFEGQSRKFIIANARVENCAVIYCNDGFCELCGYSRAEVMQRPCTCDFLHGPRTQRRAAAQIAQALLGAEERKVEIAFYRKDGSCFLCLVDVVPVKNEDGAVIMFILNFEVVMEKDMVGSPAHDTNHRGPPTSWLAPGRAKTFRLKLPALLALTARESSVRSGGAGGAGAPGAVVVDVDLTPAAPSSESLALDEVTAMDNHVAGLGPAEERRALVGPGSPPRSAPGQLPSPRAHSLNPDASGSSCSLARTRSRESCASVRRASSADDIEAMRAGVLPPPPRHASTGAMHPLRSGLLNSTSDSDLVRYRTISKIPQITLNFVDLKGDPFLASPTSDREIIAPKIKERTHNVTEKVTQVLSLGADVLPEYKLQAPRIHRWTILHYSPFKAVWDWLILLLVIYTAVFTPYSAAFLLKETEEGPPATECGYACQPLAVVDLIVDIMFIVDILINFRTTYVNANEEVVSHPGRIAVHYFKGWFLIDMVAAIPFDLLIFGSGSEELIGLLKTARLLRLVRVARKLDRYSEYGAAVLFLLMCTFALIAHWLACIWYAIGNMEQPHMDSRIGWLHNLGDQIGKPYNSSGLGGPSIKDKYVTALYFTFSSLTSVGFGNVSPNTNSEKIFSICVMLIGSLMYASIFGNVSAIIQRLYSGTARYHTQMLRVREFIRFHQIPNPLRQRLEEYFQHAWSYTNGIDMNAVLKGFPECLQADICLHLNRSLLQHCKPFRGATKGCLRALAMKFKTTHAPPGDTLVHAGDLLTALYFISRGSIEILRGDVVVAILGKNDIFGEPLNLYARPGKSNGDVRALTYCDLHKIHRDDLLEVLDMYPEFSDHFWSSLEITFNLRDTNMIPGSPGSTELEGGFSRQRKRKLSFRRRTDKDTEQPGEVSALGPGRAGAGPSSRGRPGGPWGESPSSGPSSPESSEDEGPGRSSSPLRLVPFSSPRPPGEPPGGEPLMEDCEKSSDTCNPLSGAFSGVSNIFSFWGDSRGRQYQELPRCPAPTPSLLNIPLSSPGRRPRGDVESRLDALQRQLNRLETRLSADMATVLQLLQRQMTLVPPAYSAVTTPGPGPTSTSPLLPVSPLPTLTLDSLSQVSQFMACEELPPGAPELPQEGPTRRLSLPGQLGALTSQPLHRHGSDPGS

Dipeptidyl peptidase 8, sequence (Q6V1X1 whole entry): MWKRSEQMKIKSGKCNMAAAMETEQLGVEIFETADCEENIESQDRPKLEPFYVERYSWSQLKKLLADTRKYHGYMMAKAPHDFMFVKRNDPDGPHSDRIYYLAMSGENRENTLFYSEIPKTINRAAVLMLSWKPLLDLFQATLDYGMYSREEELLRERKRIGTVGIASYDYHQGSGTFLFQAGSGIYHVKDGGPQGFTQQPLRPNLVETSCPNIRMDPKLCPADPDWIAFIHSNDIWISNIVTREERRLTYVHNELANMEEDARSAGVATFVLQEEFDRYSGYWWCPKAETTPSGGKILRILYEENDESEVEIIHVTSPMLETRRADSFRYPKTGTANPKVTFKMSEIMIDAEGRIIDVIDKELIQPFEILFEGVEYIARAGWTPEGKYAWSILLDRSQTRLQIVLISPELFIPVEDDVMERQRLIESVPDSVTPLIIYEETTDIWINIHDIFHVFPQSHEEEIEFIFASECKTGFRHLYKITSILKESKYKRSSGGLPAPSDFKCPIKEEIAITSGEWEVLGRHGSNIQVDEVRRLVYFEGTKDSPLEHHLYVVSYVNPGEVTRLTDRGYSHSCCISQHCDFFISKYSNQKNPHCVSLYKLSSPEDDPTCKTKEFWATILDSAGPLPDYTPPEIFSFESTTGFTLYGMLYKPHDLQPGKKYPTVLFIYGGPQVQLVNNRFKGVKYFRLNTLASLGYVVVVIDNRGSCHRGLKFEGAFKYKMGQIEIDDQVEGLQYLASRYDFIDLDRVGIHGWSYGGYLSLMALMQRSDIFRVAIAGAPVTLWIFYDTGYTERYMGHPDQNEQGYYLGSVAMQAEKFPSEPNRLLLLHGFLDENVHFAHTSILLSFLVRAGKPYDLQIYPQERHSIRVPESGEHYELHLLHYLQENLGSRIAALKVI
Dipeptidyl peptidase 9, sequence (Q86TI2 whole entry): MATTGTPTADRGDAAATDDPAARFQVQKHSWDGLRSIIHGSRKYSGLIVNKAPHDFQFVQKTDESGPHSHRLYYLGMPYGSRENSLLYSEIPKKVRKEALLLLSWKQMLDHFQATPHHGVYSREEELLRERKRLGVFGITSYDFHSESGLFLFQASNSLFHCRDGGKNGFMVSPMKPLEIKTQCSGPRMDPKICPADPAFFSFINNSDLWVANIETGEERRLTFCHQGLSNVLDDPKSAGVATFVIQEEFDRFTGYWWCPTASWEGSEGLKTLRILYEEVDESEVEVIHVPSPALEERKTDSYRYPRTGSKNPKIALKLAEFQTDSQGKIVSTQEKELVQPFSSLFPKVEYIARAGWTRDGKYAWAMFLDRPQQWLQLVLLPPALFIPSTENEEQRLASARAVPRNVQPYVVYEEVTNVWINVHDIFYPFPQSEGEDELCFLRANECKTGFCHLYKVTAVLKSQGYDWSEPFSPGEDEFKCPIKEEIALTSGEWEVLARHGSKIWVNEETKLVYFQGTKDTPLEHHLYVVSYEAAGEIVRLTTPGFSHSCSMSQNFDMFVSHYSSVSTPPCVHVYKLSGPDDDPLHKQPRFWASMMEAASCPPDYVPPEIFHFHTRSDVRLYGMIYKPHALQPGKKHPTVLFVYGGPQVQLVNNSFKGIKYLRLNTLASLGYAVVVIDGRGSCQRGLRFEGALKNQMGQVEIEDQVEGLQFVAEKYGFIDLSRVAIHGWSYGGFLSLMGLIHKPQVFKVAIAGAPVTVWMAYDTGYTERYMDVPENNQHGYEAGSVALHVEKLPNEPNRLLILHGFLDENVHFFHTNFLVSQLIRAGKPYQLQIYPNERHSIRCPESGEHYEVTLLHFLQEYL

With CC#CCn1c(N2CCC[C@@H](N)C2)cc(=O)n(CC#CC)c1=O the IC50 (Dipeptidyl peptidase 8) was greater than 100 µM and the IC50 (Dipeptidyl peptidase 9) was greater than 100 µM.

Compound CC#CCn1c(N2CCC[C@@H](N)C2)cc(=O)n(Cc2ccccc2)c1=O has an IC50 (Dipeptidyl peptidase 8) greater than 100 µM and an IC50 (Dipeptidyl peptidase 9) greater than 100 µM.

CC#CCn1c(N2CCC[C@@H](N)C2)cc(=O)n(Cc2ncccn2)c1=O showed an IC50 (Dipeptidyl peptidase 8) greater than 100 µM and an IC50 (Dipeptidyl peptidase 9) greater than 100 µM.

In the case of CC#CCn1c(N2CCC[C@@H](N)C2)cc(=O)n(Cc2nc3ccccc3[nH]2)c1=O, the IC50 (Dipeptidyl peptidase 8) is reported as greater than 100 µM and the IC50 (Dipeptidyl peptidase 9) is reported as greater than 100 µM.

In the case of CC#CCn1c(N2CCC[C@@H](N)C2)cc(=O)n(Cc2ccc3ccccc3n2)c1=O, the bioavailability [1] is reported as 63%, the half-life [2] is reported as 4.2 h and the IC50 (Cytochrome P450 3A4) is reported as 97.9 µM. For the same compound, the IC50 (Dipeptidyl peptidase 8) was greater than 100 µM and the IC50 (Dipeptidyl peptidase 9) was greater than 100 µM.

Compound CC#CCn1c(N2CCC[C@@H](N)C2)cc(=O)n(Cc2ccc3c(ccc4ccccc43)n2)c1=O has an IC50 (Dipeptidyl peptidase 8) greater than 100 µM and an IC50 (Dipeptidyl peptidase 9) greater than 100 µM.

Work on CC#CCn1c(N2CCC[C@@H](N)C2)cc(=O)n(Cc2ccc3cc(Br)ccc3n2)c1=O yielded an IC50 (Cytochrome P450 3A4) of 79.4 µM, an IC50 (Dipeptidyl peptidase 8) greater than 100 µM and an IC50 (Dipeptidyl peptidase 9) greater than 100 µM.

With CC#CCn1c(N2CCC[C@@H](N)C2)cc(=O)n(Cc2ccc3cc(Cl)ccc3n2)c1=O the IC50 (Cytochrome P450 3A4) was 91.9 µM, the IC50 (Dipeptidyl peptidase 8) was greater than 100 µM and the IC50 (Dipeptidyl peptidase 9) was greater than 100 µM.

CC#CCn1c(N2CCC[C@@H](N)C2)cc(=O)n(Cc2ccc3cc(F)ccc3n2)c1=O showed an IC50 (Cytochrome P450 3A4) of 58.3 µM, an IC50 (Dipeptidyl peptidase 8) greater than 100 µM and an IC50 (Dipeptidyl peptidase 9) greater than 100 µM.

CC#CCn1c(N2CCC[C@@H](N)C2)cc(=O)n(Cc2ccc3cc(C)ccc3n2)c1=O showed an IC50 (Cytochrome P450 3A4) of 46.2 µM, an IC50 (Dipeptidyl peptidase 8) greater than 100 µM and an IC50 (Dipeptidyl peptidase 9) greater than 100 µM.

Compound CC#CCn1c(N2CCC[C@@H](N)C2)cc(=O)n(Cc2ccc3cc(OC)ccc3n2)c1=O has an IC50 (Cytochrome P450 3A4) of 42.2 µM, an IC50 (Dipeptidyl peptidase 8) greater than 100 µM and an IC50 (Dipeptidyl peptidase 9) greater than 100 µM.

In the case of CC#CCn1c(N2CCC[C@@H](N)C2)cc(=O)n(Cc2ccc3ccc(Cl)cc3n2)c1=O, the inhibition in vivo at 1 mg/kg (Mus musculus [3]) is reported as 11.5%, the inhibition in vivo at 1 mg/kg (Mus musculus [4]) is reported as 71.6% and the inhibition in vivo at 1 mg/kg (Mus musculus [5]) is reported as 76%. For the same compound, the inhibition in vivo at 1 mg/kg (Mus musculus [6]) was 51.8%, the inhibition in vivo at 3 mg/kg (Mus musculus [7]) was 13.5% and the inhibition in vivo at 3 mg/kg (Mus musculus [8]) was 82.3%. It also gave an inhibition in vivo at 3 mg/kg (Mus musculus [9]) of 84.7%, an inhibition in vivo at 3 mg/kg (Mus musculus [10]) of 80.4% and a bioavailability [1] of 73%. For the same compound, the Vd/F [11] was 8.65 L/kg, the AUC(0-t) [12] was 17600 ng·h/mL and the clearance [13] was 17.5 mL/min/kg. For the same compound, the half-life [14] was 5.65 h, the half-life [2] was 5.02 h and the IC50 (Cytochrome P450 3A4) was 46.2 µM. The IC50 [15] was greater than 100 µM, the IC50 (Dipeptidyl peptidase 8) was greater than 100 µM and the IC50 (Dipeptidyl peptidase 9) was greater than 100 µM.

CC#CCn1c(N2CCC[C@@H](N)C2)cc(=O)n(Cc2ccc3ccc(F)cc3n2)c1=O showed an IC50 (Cytochrome P450 3A4) of 54.7 µM, an IC50 (Dipeptidyl peptidase 8) greater than 100 µM and an IC50 (Dipeptidyl peptidase 9) greater than 100 µM.

CC#CCn1c(N2CCC[C@@H](N)C2)cc(=O)n(Cc2cc(Cl)c3ccccc3n2)c1=O gave an IC50 (Cytochrome P450 3A4) of 14.1 µM and an IC50 (Dipeptidyl peptidase 8) greater than 100 µM.

For Cn1c(=O)cc(N2CCC[C@@H](N)C2)n(Cc2ccccc2C#N)c1=O [ALOGLIPTIN], the inhibition in vivo at 1 mg/kg (Mus musculus [3]) was 0.5%, the inhibition in vivo at 1 mg/kg (Mus musculus [4]) was 27.6% and the inhibition in vivo at 1 mg/kg (Mus musculus [5]) was 49.4%. The inhibition in vivo at 1 mg/kg (Mus musculus [6]) was 72.6%, the inhibition in vivo at 3 mg/kg (Mus musculus [7]) was 0.8% and the inhibition in vivo at 3 mg/kg (Mus musculus [8]) was 50.9%. For the same compound, the inhibition in vivo at 3 mg/kg (Mus musculus [9]) was 71.5%, the inhibition in vivo at 3 mg/kg (Mus musculus [10]) was 83.8% and the half-life [2] was 2 h.
